Laboratory results reported in patent US12357695B2, “Peptides and nanoparticles for intracellular delivery of molecules” (AADIGEN, LLC, priority 2019, dated 2025).
“Also recorded” adds a separate entry of the source. Square brackets hold non-standard residues; d marks the D form. Ends that are not written are not given here. Stearyl = stearyl group covalently linked to the N-terminus; Aun = NCCCCCCCCCCC(=O)O; βAla = NCCC(=O)O

What was measured:
[1] = test system: mice; test: In vivo delivery of pGL4 plasmid DNA, intramuscular administration, bioluminescence imaging; details: IM, 2.5 μg pGL4 plasmid
Description: FIGS. 7A-7B show the potency of ADGN-peptide variants for in vivo delivery of Luciferase expressing plasmid pGL4 via intramuscular administration in mice. ADGN-peptide/pGL4 luc particles containing 2.5 μg plasmid DNA were formed in sterile water, and then diluted in 5% sucrose. Mice received IV injection of 25 μl ADGN-peptide/pGL4 complexes. Luciferase expression was monitored by bioluminescence imaging after 12 h, 24 h and 48h (A). FIG. 7B show bioluminescence imaging at 24 hr in control and treated groups.
Stable ADGN-peptides/pGL4.11 DNA were evaluated for in vivo delivery of Luciferase mRNA via intravenous and intramuscular administrations. Animals were treated with single dose of pGL4.11 plasmid DNA of 5 μg. via IV and 2.5 μg via intramuscular administration.
For IM administration, mice received 25 μl (2.5 μg of pGL4 plasmid) IV injection of either ADGN-100/PGL4, ADGN-106/PGL4, ADGN-100RI/PGL4, ADGN-100hydro1/PGL4, ADGN-100hydro6/PGL4, ADGN-100 stearyl/PGL4 or ADGN-100/PGL4 complexes containing 10% or 20% of ADGN-100PEG (2 animals per group). As control, mice from group 3 (2 animals per group) received IV injection of 25 μl of naked PGL4 plasmid (2.5 μg).
Luciferase expression was monitored by bioluminescence. Bioluminescence imaging was performed after 12, 24, 48 and 72 hrs. Mice received an i.p. injection of 150 μg/g luciferin for noninvasive bioluminescence imaging (IVIS Kinetic; PerkinElmer, Waltham, MA, USA).

[2] = test system: mice; test: In vivo delivery of Luciferase mRNA, intravenous administration, bioluminescence imaging; details: 5 μg Luc mRNA; for mRNA / luciferase expression and tissues: single dose
Description: FIGS. 4A-4D show the potency of ADGN-peptide variants for in vivo delivery of Luciferase mRNA via intravenous administration in mice. ADGN-peptide/luc mRNA particles containing 5 μg mRNA were formed in sterile water, and then diluted in 5% sucrose. Mice received IV injection of 100 μl ADGN-peptide/mRNA complexes. mRNA LUC expression was monitored by bioluminescence imaging after 12 h, 24 h, 48 h and 72 h. FIG. 4B show bioluminescence imaging at 24 hr in control and treated groups. Semi-quantitative data of luciferase signal in the liver (C) and in the lung (D) were obtained using the manufacturer's software (Living Image; PerkinElmer). Results were then expressed as values relative to day 0.
Stable ADGN-peptides/mRNA were evaluated for in vivo delivery of Luciferase mRNA via intravenous and intramuscular administrations. Animals were treated with single dose of 5 moU modified Luc mRNA of 5 μg. 5 moU modified Luc mRNA (5 μg) in sterile water (GIBCO) were mixed with ADGN peptide (sterile water), volume for each sample was adjusted to 100 μl, with sterile water containing 5% Sucrose. Samples were mixed gently with vortex for 1 minute at low speed and incubated for 30 min at room temperature. Samples were filtered on 0.45 μm PES filters prior administration. For IV administration Mice received 100 μl intravenous (IV) injection of either ADGN-106/mRNA, ADGN-100/mRNA, ADGN-106RI/mRNA, ADGN-100-stearyl/mRNA, ADGN-100Hydro1/mRNA, ADGN-100Hydro2 or ADGN/mRNA complexes containing 10% of ADGN-100PEG (3 animals per group). As control, mice from group 3 (2 animals per group) received IV injection of 100 μl of naked 5 moU modified Luc mRNA (5 μg). For IM administration, mice received 25 μl (5 μg mRNA) IV injection of either ADGN-100/mRNA, ADGN-106/mRNA, ADGN-106RI/mRNA or ADGN/mRNA complexes containing 10% or 20% of ADGN-100PEG (2 animals per group). As control, mice from group 3 (2 animals per group) received IV injection of 25 μl of naked 5 moU modified Luc mRNA (5 μg).
mRNA Luc expression was monitored by bioluminescence. Bioluminescence imaging was performed after 12, 24, 48 and 72 hrs. Mice received an i.p. injection of 150 μg/g luciferin for noninvasive bioluminescence imaging (IVIS Kinetic; PerkinElmer, Waltham, MA, USA).

[3] = test system: mice or rat models; test: Summary of cargo delivery to targeted organ (Table 1); assay type: in vivo
Text: Table 1 lists a summary of cell-penetrating peptides that have been proven successful in delivering various cargo molecules to on or more targeted organ (e.g., by intravenous (IV), intramuscular (IM), or subcutaneous (SQ) administration, or intratraccheal instillation or nebulization (NB)) in mice or rat models.

[4] = DLS particle size and level of aggregation of ADGN-peptide/mRNA complexes; assay type: physicochemical; details: retro inverso modification vs parent peptide
Description: Complex formation with mRNA. The following protocols were used for the transfection of 2-5 106 Cells or Cells at confluency of about 70-80% cultured in 24 well plates. ADGN peptide/mRNA particles were prepared at a 20:1 molar ratio of ADGN-Peptide/mRNA. using (0.25 μg) mRNA. Luc mRNA (0.25 μg) was diluted in 20 μl of sterile water (GIBCO) at room temperature. 5 μl Final Peptide Solution was added to obtain a total volume of 20 μl. The volume was adjusted to 50 μl with sterile water and was mixed gently with vortex 1 min low speed and incubated 30 min at room temperature. Then the volume was made up to 100 μl by adding sterile water containing 5% sucrose, and the solution was mixed gently with vortex 1 min low speed and incubate 5 min at 37° C. and then was proceeded to cell transfection.
The ability of the different ADGN-peptides to form stable nanoparticles with mRNA was analyzed. The particle sizes and level of aggregation were measured on DLS NanoZS (Malvern Ltd). The mean size and the polydispersity of the ADGN/mRNA complexes were determined at 25° C. for 3 minute per measurement. In order to remove large particles, ADGN/mRNA complexed were filtered using either PES or PVDF 0.45 μm filters. Data are shown in FIG. 8 and FIG. 9 for a mean of 3 separate experiments.

[5] = cargoes and route (IV, IM, SQ, NB) per peptide as listed in Table 1

Substance	luciferase expression [1]	mRNA / luciferase expression and tissues [2]	Targeted Organ [3, 5]	also measured
Ac-GYVS-(G)4-KWRSALWRWRLWRVRSWSR-NH2 (Ac-GYVSGGGGKWRSALWRWRLWRVRSWSR-NH2) [ADGN-100 hydro-2]	no significant expression	negligible luciferase expression		
Ac-GYVS-Aun-KWRSALWRWRLWRVRSWSR-NH2 (Ac-GYVS[Aun]KWRSALWRWRLWRVRSWSR-NH2; SMILES CC(=O)NCC(=O)N[C@@H](Cc1ccc(O)cc1)C(=O)N[C@H](C(=O)N[C@@H](CO)C(=O)NCCCCCCCCCCC(=O)N[C@@H](CCCCN)C(=O)N[C@@H](Cc1c[nH]c2ccccc12)C(=O)N[C@@H](CCCNC(=N)N)C(=O)N[C@@H](CO)C(=O)N[C@@H](C)C(=O)N[C@@H](CC(C)C)C(=O)N[C@@H](Cc1c[nH]c2ccccc12)C(=O)N[C@@H](CCCNC(=N)N)C(=O)N[C@@H](Cc1c[nH]c2ccccc12)C(=O)N[C@@H](CCCNC(=N)N)C(=O)N[C@@H](CC(C)C)C(=O)N[C@@H](Cc1c[nH]c2ccccc12)C(=O)N[C@@H](CCCNC(=N)N)C(=O)N[C@H](C(=O)N[C@@H](CCCNC(=N)N)C(=O)N[C@@H](CO)C(=O)N[C@@H](Cc1c[nH]c2ccccc12)C(=O)N[C@@H](CO)C(=O)N[C@@H](CCCNC(=N)N)C(N)=O)C(C)C)C(C)C) [ADGN-100 hydro-6]	mediated Luciferase expression following IM administration			
Stearyl-βA-KWRSALWRWRLWRVRSWSR-NH2 (Stearyl-[βAla]KWRSALWRWRLWRVRSWSR-NH2; not fully specified; printed as Stearyl-βA-KWRSALWRWRLWRVRSWSR-NH2) [ADGN-100 Stearyl]		mainly observed in the liver and at lower level in the lung and the kidney	Lung/Liver/; also recorded: Kidney/Pancreas	
akwllrwlsrwlrwlarwlr ([dA][dK][dW][dL][dL][dR][dW][dL][dS][dR][dW][dL][dR][dW][dL][dA][dR][dW][dL][dR]; also: retro-inverso) [ADGN-106-RI]		mainly observed in the liver and at lower level in the lung and the kidney	Liver/Lung	ability of the peptide to form stable complex with mRNA [4]: did not modify the ability of the peptide to form stable complex with mRNA; increase of luciferase expression / efficiency relative to ADGN-106 ([2]; all / different tissues): 2 fold
rswsrvrwlrwrwgasrwk ([dR][dS][dW][dS][dR][dV][dR][dW][dL][dR][dW][dR][dW]G[dA][dS][dR][dW][dK]; also: retro-inverso) [ADGN-100-RI]	mediated Luciferase expression following IM administration		Liver/Lung/; also recorded: Kidney/Spleen	increase of luciferase expression in the muscle / efficiency relative to ADGN-100 [1]: 6 fold; ability of the peptide to form stable complex with mRNA [4]: did not modify the ability of the peptide to form stable complex with mRNA
βAKWRSAGWRWRLW RVRSWSR (AKWRSAGWRWRLWRVRSWSR; N-terminal beta-alanine; VARIANT 1 beta-A) [ADGN-100]	mediated Luciferase expression following IM administration	mainly observed in the liver and at lower level in the lung and the kidney		Targeted Organ ([3]; cargoes and route (IV, IM, SQ, NB) per peptide as listed in Table 1, listed as ADGN-100a): Lung/Liver/; also recorded: Kidney/Pancreas
βALWRALWRLWRSLWRLLWKA ([βAla]LWRALWRLWRSLWRLLWKA) [ADGN-106]	no significant expression	mainly observed in the liver and at lower level in the lung and the kidney	Liver/Lung	efficiency relative to ADGN-100 [2]: 4 folds; efficiency relative to ADGN-100 stearyl [2]: 2 folds
